# Measured values published in ChEMBL document CHEMBL1155686, “Luteolin, a compound with adenosine A(1) receptor-binding activity, and chromone and dihydronaphthalenone constituents from Senna siamea” (J Nat Prod, 2000).
# Target: T1, Adenosine receptor A1 (Rattus norvegicus, UniProt P25099)
# T1 sequence (P25099 whole entry): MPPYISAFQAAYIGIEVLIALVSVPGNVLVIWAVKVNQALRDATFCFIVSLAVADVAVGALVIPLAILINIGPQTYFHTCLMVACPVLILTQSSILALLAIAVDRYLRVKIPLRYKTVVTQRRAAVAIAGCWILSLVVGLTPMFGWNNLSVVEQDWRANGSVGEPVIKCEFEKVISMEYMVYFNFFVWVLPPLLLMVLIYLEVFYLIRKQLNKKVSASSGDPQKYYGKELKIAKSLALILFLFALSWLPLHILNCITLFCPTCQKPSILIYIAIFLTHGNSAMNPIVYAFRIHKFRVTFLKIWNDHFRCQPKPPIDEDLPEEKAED
# Experiment: Displacement of [3H]DPCPX from adenosine A1 receptor in rat brain cortex membrane in presence of 0.5 mM GTP
# Type: cell membranes
row,Structure (SMILES),Ki [µM]
1,O=c1cc(-c2ccc(O)c(O)c2)oc2cc(O)cc(O)c12 [LUTEOLIN],1.55

# Target: T1, Adenosine receptor A1
# Experiment: Displacement of [3H]DPCPX from adenosine A1 receptor in rat brain cortex membrane
# Type: cell membranes
row,Structure (SMILES),Ki [µM]
1,O=c1cc(-c2ccc(O)c(O)c2)oc2cc(O)cc(O)c12 [LUTEOLIN],1.66
2,CC(=O)Cc1cc(O)cc2oc(CO)cc(=O)c12,> 50
3,CC(=O)[C@@H]1c2cc(O)cc(O)c2C(=O)C[C@]1(C)O (relative stereo),> 50

# Next, values leading:
row,Ki [µM],Structure (SMILES)
1,> 50,CC(=O)[C@@H]1c2cc(O)cc(O)c2C(=O)C[C@@]1(C)O (relative stereo)
2,> 50,CC(=O)Cc1cc(O)cc2oc(C)cc(=O)c12
